Reference: paper PMC6943726, “Discovery of 8-Amino-Substituted 2-Phenyl-2,7-Naphthyridinone Derivatives as New c-Kit/VEGFR-2 Kinase Inhibitors” (Molecules, 2019)

Tests used:
Assay type in all cases: biochemical
MET = target: T1, MET (Homo sapiens, UniProt P08581); assay: HTRF enzyme assay with recombinant MET kinase domain; settings: purified recombinant MET kinase domain, read-out: Inhibitory Activity, IC50, MET
T1 construct: was evaluated using an enzyme assay with a recombinant kinase domain; purchased Invitrogen (Carlsbad, CA, US)
Protocol: (§1) The ability of the synthesized compounds to inhibit MET, c-Kit, and VEGFR-2 activities was evaluated using an enzyme assay with a recombinant kinase domain [29]. Based on the structure activity relationship (SAR) of MET inhibitors, we proposed that the removal of the key diaryl ether fragments in compound 3 would result in a loss of MET activity.
(§2) The ability of compounds to inhibit the activity of three kinases (MET, c-Kit, and VEGFR-2) was tested in vitro [30]. Enzyme assays were run in homogeneous time-resolved fluorescence (HTRF) format in 384-well microtiter plates using purified kinases purchased from Invitrogen (Carlsbad, CA, US). The HTRF KinEASE TK kit (contains substrate-biotin, antibody-cryptate, streptavidin-XL665, 5×enzymatic buffer, and detection buffer) was purchased from Cisbio (Codolet, France), and the kinase assays were performed according to the manufacturer’s instructions. After the kinases and the compounds incubated at 25~30 °C for 5 min, the reactions were initiated by the addition of 2 μL of mixed substrate solution (mixed solution of ATP (Sigma, Shanghai, China) and substrate-biotin). The final concentrations of kinases were at EC80 and the total reaction volume was 8 μL. Plates were incubated at 30 °C for 30~60 min, then the reactions were quenched by the addition 8 μL mixed detection solution (mixed solution of antibody-cryptate and streptavidin-XL665 in detection buffer). The fluorescence excitation wavelength was […]. The fluorescence at 665 nm (acceptor emission wavelength) and 620 nm (donor emission wavelength) was measured with a PHERAstar FS plate reader (BMG, LABTECH, Ortenberg, Germany) using a time delay of 50 μs. All kinase assays were conducted using ATP concentrations below the enzyme Kmapp and kinase-specific biotinylated substrate peptides.
(§3) The data for dose responses were plotted as percentage of inhibition calculated with the data reduction formula 100 × [1 − (U1 − C2)/(C1 − C2)] versus concentration of compound, where U is the emission ratio of 665 nm and 620 nm of test sample, C1 is the average value obtained for solvent control (2% DMSO), and C2 is the average value obtained for no reaction control (no kinase sample). Inhibition curves were generated by plotting percentage of control activity versus log10 of the concentration of each […]. The IC50 values were calculated by nonlinear regression with Graphpad Prism 5 (GraphPad Software, San Diego, CA).

c-Kit = target: T2, c-Kit (Homo sapiens, UniProt P10721); assay: HTRF enzyme assay with recombinant c-Kit kinase domain; settings: for IC50: purified recombinant c-Kit kinase domain, HTRF, read-out: Inhibitory Activity, IC50, c-Kit
T2 construct: was evaluated using an enzyme assay with a recombinant kinase domain; purchased Invitrogen (Carlsbad, CA, US)
Protocol: as §1, §2, §3

VEGFR-2 = target: T3, VEGFR-2 (Homo sapiens, UniProt P35968); assay: HTRF enzyme assay with recombinant VEGFR-2 kinase domain; settings: purified recombinant VEGFR-2 kinase domain, HTRF; read-out: Inhibitory Activity, IC50, VEGFR-2
T3 construct: was evaluated using an enzyme assay with a recombinant kinase domain; purchased Invitrogen (Carlsbad, CA, US)
Protocol: as §1, §2, §3

T2 sequence (P10721 589-937 limits assumed): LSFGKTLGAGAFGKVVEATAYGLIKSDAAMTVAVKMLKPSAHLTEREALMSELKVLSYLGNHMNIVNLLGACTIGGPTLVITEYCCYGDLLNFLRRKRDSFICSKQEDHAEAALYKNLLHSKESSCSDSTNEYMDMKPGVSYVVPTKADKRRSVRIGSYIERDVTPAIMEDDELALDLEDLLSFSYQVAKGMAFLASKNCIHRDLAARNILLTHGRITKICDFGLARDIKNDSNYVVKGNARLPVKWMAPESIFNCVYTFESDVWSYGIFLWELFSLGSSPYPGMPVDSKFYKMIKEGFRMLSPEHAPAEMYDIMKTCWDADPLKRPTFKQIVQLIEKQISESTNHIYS
T1 sequence (P08581 1078-1345 limits assumed): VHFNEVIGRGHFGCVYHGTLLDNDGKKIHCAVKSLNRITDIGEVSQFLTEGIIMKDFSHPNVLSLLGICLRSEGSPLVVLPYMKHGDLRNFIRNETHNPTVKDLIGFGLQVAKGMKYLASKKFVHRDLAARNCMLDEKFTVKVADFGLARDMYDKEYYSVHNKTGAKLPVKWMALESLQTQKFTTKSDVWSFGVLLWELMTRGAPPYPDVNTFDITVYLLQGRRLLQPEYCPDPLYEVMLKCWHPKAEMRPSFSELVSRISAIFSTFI
T3 sequence (P35968 834-1162 limits assumed): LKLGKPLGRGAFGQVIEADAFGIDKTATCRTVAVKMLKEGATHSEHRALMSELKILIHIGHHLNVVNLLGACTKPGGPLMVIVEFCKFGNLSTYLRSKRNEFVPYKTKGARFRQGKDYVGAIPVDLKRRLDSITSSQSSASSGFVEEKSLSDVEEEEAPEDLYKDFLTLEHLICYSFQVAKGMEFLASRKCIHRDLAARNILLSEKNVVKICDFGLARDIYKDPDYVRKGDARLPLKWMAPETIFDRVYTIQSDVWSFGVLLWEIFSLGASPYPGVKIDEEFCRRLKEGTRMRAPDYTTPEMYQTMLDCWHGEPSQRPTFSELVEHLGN

Row | Structure (SMILES) | IC50 (MET) [µM] | IC50 (c-Kit) [µM] | IC50 (VEGFR-2) [µM] | c-Kit inhibitory activity (in words) (c-Kit)
1 | Cc1cc2ccnc(NCc3ccnc4ccccc34)c2c(=O)n1-c1ccccc1 [Compound 10h, 3-methyl-2-phenyl-8-((quinolin-4-ylmethyl)amino)-2,7-naphthyridin-1(2H)-one] | > 5 | > 5 | 1.03 | –
2 | O=c1c2c(NCc3ccco3)nccc2ccn1-c1ccc(F)cc1 [Compound 9i, 2-(4-fluorophenyl)-8-((furan-2-ylmethyl)amino)-2,7-naphthyridin-1(2H)-one] | > 5 | > 5 | > 5 | –
3 | Cc1cc2ccnc(NCc3cccc4ccccc34)c2c(=O)n1-c1ccc(OC(F)(F)F)cc1 [Compound 10q, 3-methyl-8-((naphthalen-1-ylmethyl)amino)-2-(4-(trifluoromethoxy)phenyl)-2,7-naphthyridin-1(2H)-one] | > 5 | > 5 | > 5 | –
4 | Cc1cc2ccnc(NCc3ccnc4ccccc34)c2c(=O)n1-c1ccc(F)cc1 [Compound 10d, 2-(4-fluorophenyl)-3-methyl-8-((quinolin-4-ylmethyl)amino)-2,7-naphthyridin-1(2H)-one] | > 5 | 1.61 | 0.208 | weak c-Kit inhibitory activity
